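Values below derive from 48-hour exposures of cells grown in 96-well plates, with endpoints linearly interpolated between the two concentrations bracketing the appropriate inhibition level. At the GI50, growth is halved.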 Activity calls are given as the source filed them. No stated cut-off is given here; in the data, active = GI50 up to about 1.1 µM and inactive = higher.
Experiments:
Experiment in all cases: NCI-60 cell line screen, 48 h
DLD-1 = system: DLD-1
DMS-114 = system: DMS-114
DMS-273 = system: DMS-273
KM-20L2 = system: KM-20L2
LXFL 529 = system: LXFL 529
M19-MEL = system: M19-MEL
RXF 631 = system: RXF 631
HOP-18 = system: HOP-18
SNB-78 = system: SNB-78

Row | Structure (SMILES) | GI50 (DLD-1) | GI50 (DMS-114) | GI50 (DMS-273) | GI50 (KM-20L2) | GI50 (LXFL 529) | GI50 (M19-MEL) | GI50 (RXF 631) | GI50 (HOP-18) | GI50 (SNB-78)
1 | CN(Cc1ccccc1)C(=O)c1ccccc1C(=O)O | > 100 µM (inactive) | > 100 µM (inactive) | > 100 µM (inactive) | > 100 µM (inactive) | > 100 µM (inactive) | > 100 µM (inactive) | > 100 µM (inactive) |  | 
2 | Nc1nc(N)c(CCCCc2ccccc2)c(N)n1 | > 100 µM (inactive) | > 100 µM (inactive) | > 100 µM (inactive) | > 100 µM (inactive) | > 100 µM (inactive) | > 100 µM (inactive) |  |  | 
3 | COc1ccc2oc3c(OC)c(OC)c(OC)cc3c(=O)c2c1 | > 100 µM (inactive) | > 100 µM (inactive) | > 100 µM (inactive) | > 100 µM (inactive) | > 100 µM (inactive) | > 100 µM (inactive) | > 100 µM (inactive) | 0.232 µM (active) | 69.7 µM (inactive)
4 | N[C@H]1C2C3CC4C5CC(C42)C1(c1ccccc1)C53 (stereo partly drawn) | > 100 µM (inactive) | > 100 µM (inactive) | > 100 µM (inactive) | > 100 µM (inactive) | > 100 µM (inactive) | > 100 µM (inactive) |  | > 100 µM (inactive) | > 100 µM (inactive)
5 | Cc1cc(N(CCC#N)CCC#N)ccc1/C=C(\NC(=O)/C=C/c1ccccc1)NC(=O)Nc1ccc(Cl)cc1 | 75 µM (inactive) | 17.3 µM (inactive) | 5.04 µM (inactive) | 5.37 µM (inactive) | 0.652 µM (active) | 93.1 µM (inactive) |  |  | > 10 µM (inactive)
6 | N/N=C1\C(=O)N(C2CCCCCC2)C(=O)C1C(=O)NC1CCCCCC1 (stereo not drawn) | 41.5 µM (inactive) |  |  | 19.5 µM (inactive) | 22.8 µM (inactive) | 37.9 µM (inactive) |  | 31 µM (inactive) | 21.8 µM (inactive)
7 | CCCN(CCC)c1c([N+](=O)[O-])cc(C(=O)N(C)C)cc1[N+](=O)[O-] | > 100 µM (inactive) | 33.4 µM (inactive) | 30.2 µM (inactive) |  | > 100 µM (inactive) | 92 µM (inactive) |  |  | > 100 µM (inactive)
8 | COC(=O)[C@@H]1c2[nH]c3ccccc3c2C[C@@H]2c3ccccc3NC(=O)[C@@H]21 | > 100 µM (inactive) | > 100 µM (inactive) | > 57.5 µM (inactive) | > 100 µM (inactive) | > 65.2 µM (inactive) | > 89.3 µM (inactive) |  |  | > 76.4 µM (inactive)
9 | C[C@]12CCC(=O)C(O)=C1CC[C@@H]1C2CC[C@]2(C)NC(=O)CCC12 (stereo partly drawn) |  | > 100 µM (inactive) | > 100 µM (inactive) | > 100 µM (inactive) | > 100 µM (inactive) | > 100 µM (inactive) | > 100 µM (inactive) | > 100 µM (inactive) | > 100 µM (inactive)
10 | C/C(N)=[N+](/C)[O-] | 46.6 µM (inactive) | 18.4 µM (inactive) |  | > 100 µM (inactive) | > 100 µM (inactive) | 40.5 µM (inactive) | > 100 µM (inactive) | > 100 µM (inactive) | > 100 µM (inactive)
11 | N=C(N)NCCCS(=O)(=O)Nc1ccc(Nc2c3ccccc3nc3cc([N+](=O)[O-])ccc23)cc1 | 30.1 µM (inactive) | 4.72 µM (inactive) | 4.21 µM (inactive) | 23.9 µM (inactive) | 5.62 µM (inactive) | 3.63 µM (inactive) | 25.7 µM (inactive) | 20.8 µM (inactive) | 21.4 µM (inactive)
12 | Cc1cc2c(=O)cc(-c3ccc(Cl)c(Cl)c3)oc2c(C(=O)O)c1C | > 100 µM (inactive) | > 100 µM (inactive) |  | > 100 µM (inactive) | > 100 µM (inactive) | > 100 µM (inactive) |  | > 100 µM (inactive) | > 100 µM (inactive)
13 | CN1C(=O)C(C)(C)NS1(=O)=O | > 100 µM (inactive) | > 100 µM (inactive) | > 100 µM (inactive) | > 100 µM (inactive) | > 100 µM (inactive) | > 100 µM (inactive) | > 100 µM (inactive) |  | > 100 µM (inactive)
14 | COc1cccc2c1C(=O)c1c(O)c3c(c(O)c1C2=O)C[C@@](O)(C(=O)CO)C[C@@H]3OC1CC(N)C(OC)C(C)O1 (stereo partly drawn) | 0.0667 µM (active) |  | 0.0122 µM (active) | 0.148 µM (active) | 0.0776 µM (active) |  | 0.0329 µM (active) | 0.156 µM (active) | 0.207 µM (active)

From ChEMBL document CHEMBL1201862, “PubChem BioAssay data set” (2004)
